biological target: T1, GR (Homo sapiens, UniProt P04150); assay: In Vitro GR Luciferase Reporter Assay (antagonist assay); assay type: cell-based; conditions: CHO-K1-GR-MMTV-Luc reporter cells, 10 nM Dexamethasone, 18-24 hours
T1 construct: expressed in transfected cells; host or cells: CHO-K1 (CHO-K1-GR-MMTV-Luc reporter cells)
T1 sequence (P04150 1-777): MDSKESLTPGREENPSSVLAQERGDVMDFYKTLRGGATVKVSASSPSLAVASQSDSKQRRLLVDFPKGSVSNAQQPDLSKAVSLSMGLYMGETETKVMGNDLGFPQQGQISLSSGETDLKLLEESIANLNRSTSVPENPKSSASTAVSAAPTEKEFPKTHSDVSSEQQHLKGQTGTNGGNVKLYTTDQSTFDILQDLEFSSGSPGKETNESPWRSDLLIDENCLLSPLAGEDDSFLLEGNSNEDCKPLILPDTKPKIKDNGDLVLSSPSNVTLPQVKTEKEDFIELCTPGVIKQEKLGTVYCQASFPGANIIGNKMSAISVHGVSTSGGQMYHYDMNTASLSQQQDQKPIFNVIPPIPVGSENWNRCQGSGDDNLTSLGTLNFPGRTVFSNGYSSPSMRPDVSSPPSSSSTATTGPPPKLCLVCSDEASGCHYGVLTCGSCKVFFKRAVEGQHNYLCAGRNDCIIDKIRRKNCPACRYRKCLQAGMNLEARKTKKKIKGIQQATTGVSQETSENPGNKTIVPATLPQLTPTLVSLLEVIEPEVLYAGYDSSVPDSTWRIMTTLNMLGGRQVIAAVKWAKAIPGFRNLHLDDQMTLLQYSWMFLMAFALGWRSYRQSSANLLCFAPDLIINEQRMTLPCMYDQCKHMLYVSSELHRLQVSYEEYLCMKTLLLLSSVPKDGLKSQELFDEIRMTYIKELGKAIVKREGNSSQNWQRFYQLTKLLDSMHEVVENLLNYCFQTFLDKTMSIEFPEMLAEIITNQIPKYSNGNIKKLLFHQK
Experimental: Cell Line: CHO-K1-GR-MMTV-Luc reporter cells
Culture Media: DMEM (with phenol red)+10% FBS
Assay Media: DMEM (without phenol red)+10% CSS
Culture CHO-K1-GR-MMTV-Luc reporter cells in 15 cm plates in Culture Media at conditions less than 90% confluence.
Prepare 200×DMSO 1:5 serial dilutions of control and test compounds in 96-well non-sterile V bottom plate in DMSO, 8 serial dilutions for each compound.
Add compounds: 5 ul of assay media diluted compounds were added to appropriate wells and followed a quick spin (1000 rpm, 10 sec) to bring media and cells to the bottom of plate. The plates were covered with SealMate film to avoid evaporation and placed in 37° C. incubator for approximately 18-24 hours.
Read plates: Equilibrate appropriate amount of Promega OneGlo luciferase reagent to room temperature. Remove the plates from incubator and add 25 uL of OneGlo reagent/well by multiple channel pipette and read the plates with Tecan F500 luminometer within 3 minutes.
The ability of the compounds disclosed herein to inhibit GR activity was quantified and the respective IC50 value was determined.

Structure (SMILES) | IC50 [nM]
CC#C[C@]1(O)CC[C@H]2[C@@H]3CCC4=CC(=O)CCC4=C3[C@@H](c3cccc(C(C)C)c3)C[C@@]21C [drawing 185] | < 100
CC#C[C@]1(O)CC[C@H]2[C@@H]3CCC4=CC(=O)CCC4=C3[C@@H](c3cccc(OCC)c3)C[C@@]21C [drawing 186] | < 100
CC#C[C@]1(O)CC[C@H]2[C@@H]3CCC4=CC(=O)CCC4=C3[C@@H](c3ccc(C)c(C)c3)C[C@@]21C [drawing 192] | < 100
CC#C[C@]1(O)CC[C@H]2[C@@H]3CCC4=CC(=O)CCC4=C3[C@@H](c3cc(F)cc(F)c3)C[C@@]21C [drawing 196] | < 100
CC#C[C@]1(O)CC[C@H]2[C@@H]3CCC4=CC(=O)CCC4=C3[C@@H](c3ccc(F)c(C#N)c3)C[C@@]21C [drawing 199] | < 100
CC#C[C@]1(O)CC[C@H]2[C@@H]3CCC4=CC(=O)CCC4=C3[C@@H](c3ccc(Cl)c(C(C)C)c3)C[C@@]21C [drawing 200] | < 100
CC#C[C@]1(O)CC[C@H]2[C@@H]3CCC4=CC(=O)CCC4=C3[C@@H](c3ccc(C(C)C)c(N(C)C)c3)C[C@@]21C [drawing 201] | < 100
CC#C[C@]1(O)CC[C@H]2[C@@H]3CCC4=CC(=O)CCC4=C3[C@@H](c3ccc(N(C)C)c(C(C)C)c3)C[C@@]21C [drawing 203] | > 100
CC#C[C@]1(O)CC[C@H]2[C@@H]3CCC4=CC(=O)CCC4=C3[C@@H](c3ccc(Cl)c(OC)c3)C[C@@]21C [drawing 204] | > 100
CC#C[C@]1(O)CC[C@H]2[C@@H]3CCC4=CC(=O)CCC4=C3[C@@H](c3cc(F)c(C)c(F)c3)C[C@@]21C [drawing 209] | < 100
CC#C[C@]1(O)CC[C@H]2[C@@H]3CCC4=CC(=O)CCC4=C3[C@@H](c3ccc4c(c3)OCCO4)C[C@@]21C [drawing 210] | < 100
CC#C[C@]1(O)[C@H](CC)C[C@H]2[C@@H]3CCC4=CC(=O)CCC4=C3[C@@H](c3ccc(N(C)C)cc3)C[C@@]21C [drawing 225] | < 100
CC#C[C@]1(O)[C@H](C)C[C@H]2[C@@H]3CCC4=CC(=O)CCC4=C3[C@@H](c3ccc(S(=O)(=O)N4CCCCC4)cc3)C[C@@]21C [drawing 226] | < 100
CC#C[C@]1(O)[C@H](C)C[C@H]2[C@@H]3CCC4=CC(=O)CCC4=C3[C@@H](c3ccc(N4CCOC[C@H]4C)cc3)C[C@@]21C [drawing 227] | < 100

system: AR; assay: In Vitro AR Agonism Assay (LNAR reporter cell line); assay type: cell-based; conditions: LNAR cells, RPMI + 10% CSS, 18-24 hrs; maximum response of Mifepristone set to 1
Experimental: Example 6: In Vitro AR Agonism Assay
The AR agonism assay was done in the LNAR reporter cell line which has overexpressed AR and 4XARE-Luc genes. This cell line is sensitive to even minor partial AR agonism activity in hormone-deprived media (CSS). The assays were done in RPMI (without phenol red)+10% CSS using 6000 LNAR cells/well in 384-well plates and compounds were incubated with cells in […] incubator for 18-24 hrs. OneGlo reagent (25 uL/well) was added and plates were read with luminometer within 3 minutes.
To gauge the AR partial agonism activity, Mifepristone is included as a standard in the assay. AR agonism assay results are quantified by determining the ratio of the maximum response of individual compounds to the maximum response of Mifepristone (arbitrarily set to 1). Values of Table 3 are reported as Relative Maximum Response to Mifepristone. This general trend of AR agonism was shown for the class of compounds described herein.

Structure (SMILES) | Relative Maximum Response to Mifepristone
CC#C[C@]1(O)CC[C@H]2[C@@H]3CCC4=CC(=O)CCC4=C3[C@@H](c3ccc(S(=O)(=O)N4CCCCC4)cc3)C[C@@]21C [drawing 241] | A (A: ≤0.4)
CC#C[C@]1(O)CC[C@H]2[C@@H]3CCC4=CC(=O)CCC4=C3[C@@H](c3ccc(S(=O)(=O)C(C)(C)C)cc3)C[C@@]21C [drawing 242] | A (A: ≤0.4)
CC#C[C@]1(O)CC[C@H]2[C@@H]3CCC4=CC(=O)CCC4=C3[C@@H](c3cccc(C(C)C)c3)C[C@@]21C [drawing 243] | A (A: ≤0.4)
CC#C[C@]1(O)CC[C@H]2[C@@H]3CCC4=CC(=O)CCC4=C3[C@@H](c3cccc(OCC)c3)C[C@@]21C [drawing 244] | A (A: ≤0.4)
CC#C[C@]1(O)CC[C@H]2[C@@H]3CCC4=CC(=O)CCC4=C3[C@@H](c3ccc(C)c(C)c3)C[C@@]21C [drawing 245] | A (A: ≤0.4)
CC#C[C@]1(O)CC[C@H]2[C@@H]3CCC4=CC(=O)CCC4=C3[C@@H](c3cc(F)cc(F)c3)C[C@@]21C [drawing 246] | A (A: ≤0.4)
CC#C[C@]1(O)CC[C@H]2[C@@H]3CCC4=CC(=O)CCC4=C3[C@@H](c3ccc(F)c(C#N)c3)C[C@@]21C [drawing 247] | B (B: >0.4)
CC#C[C@]1(O)CC[C@H]2[C@@H]3CCC4=CC(=O)CCC4=C3[C@@H](c3ccc(Cl)c(C(C)C)c3)C[C@@]21C [drawing 248] | A (A: ≤0.4)
CC#C[C@]1(O)CC[C@H]2[C@@H]3CCC4=CC(=O)CCC4=C3[C@@H](c3ccc(C(C)C)c(N(C)C)c3)C[C@@]21C [drawing 249] | A (A: ≤0.4)
CC#C[C@]1(O)CC[C@H]2[C@@H]3CCC4=CC(=O)CCC4=C3[C@@H](c3ccc(N(C)C)c(C(C)C)c3)C[C@@]21C [drawing 250] | A (A: ≤0.4)
CC#C[C@]1(O)CC[C@H]2[C@@H]3CCC4=CC(=O)CCC4=C3[C@@H](c3ccc(Cl)c(OC)c3)C[C@@]21C [drawing 251] | A (A: ≤0.4)
CC#C[C@]1(O)CC[C@H]2[C@@H]3CCC4=CC(=O)CCC4=C3[C@@H](c3cc(F)c(C)c(F)c3)C[C@@]21C [drawing 252] | A (A: ≤0.4)
CC#C[C@]1(O)CC[C@H]2[C@@H]3CCC4=CC(=O)CCC4=C3[C@@H](c3ccc4c(c3)OCCO4)C[C@@]21C [drawing 253] | A (A: ≤0.4)
CC#C[C@]1(O)[C@H](CC)C[C@H]2[C@@H]3CCC4=CC(=O)CCC4=C3[C@@H](c3ccc(N(C)C)cc3)C[C@@]21C [drawing 254] | A (A: ≤0.4)
CC#C[C@]1(O)[C@H](C)C[C@H]2[C@@H]3CCC4=CC(=O)CCC4=C3[C@@H](c3ccc(S(=O)(=O)N4CCCCC4)cc3)C[C@@]21C [drawing 255] | A (A: ≤0.4)
CC#C[C@]1(O)[C@H](C)C[C@H]2[C@@H]3CCC4=CC(=O)CCC4=C3[C@@H](c3ccc(N4CCOC[C@H]4C)cc3)C[C@@]21C [drawing 256] | B (B: >0.4)

same assay, conditions: in concentrations as low as 10 nM

Structure (SMILES) | AR partial agonism
CC#C[C@]1(O)CC[C@H]2[C@@H]3CCC4=CC(=O)CCC4=C3[C@@H](c3ccc(N(C)C)cc3)C[C@@]21C [Mifepristone, reference compound] | strong partial AR agonism

— patent US11110103B2, “Inhibitors of glucocorticoid receptor” (ORIC Pharmaceuticals, Inc., priority 2015, dated 2021)
